# Source: patent publication US11642339B2 (THERAVANCE BIOPHARMA R&D IP, LLC, priority 2017, dated 2023)
# Where “and” joins values, the source holds several entries; their conditions need not be identical. Identical values can stand only once. Like-named read-outs stand apart in the source and are kept apart here.
# Legend:
# [1] = tested on: subjects with diabetic or idiopathic gastroparesis; assay: DIGEST I: GRS Summary Score 2 (Factor 2: nausea and vomiting); format: in vivo, human
# From the text: (§1) A daily proprietary patient reported outcome (PRO) tool was used to assess GP symptoms, the Gastroparesis Rating Scale (GRS), developed according to the current FDA PRO guidance. The GRS covers the following cardinal symptom domains: (1) nausea, (2) vomiting, (3) postprandial fullness/early satiety, (4) bloating, (5) upper abdominal pain, (6) gastric reflux/burning, and (7) bowel movements. The GRS symptom domains may be also categorized or grouped into Factor 1 (fullness, early satiety, bloating, upper abdominal pain, and epigastric burning) and Factor 2 (nausea and vomiting).
# (§2) GRS Factor 1 (also Summary Score 1) comprised fullness/early satiety, bloating, upper abdominal pain, and epigastric burning domains, whereas GRS Factor 2 (also Summary Score 2) comprised nausea and vomiting domains.
# (§3) After the psychometric evaluation the GRS was summarized using two summary scores: Summary Score 1 combined the fullness/early satiety, bloating, upper abdominal pain, and epigastric burning domains and Summary Score 2 combined the nausea and vomiting domains.
# [2] = tested on: subjects with diabetic or idiopathic gastroparesis
# From the text: as §1, §2, §3
# [3] = 5 mg/day, Week 4, diabetic gastroparesis population
# [4] = 5 mg/day, Week 4, idiopathic gastroparesis population
# [5] = 5 mg/day, Week 8, diabetic gastroparesis population
# [6] = 5 mg/day, Week 8, idiopathic gastroparesis population
# [7] = 5 mg/day, Week 12, diabetic gastroparesis population
# [8] = 5 mg/day, Week 12, idiopathic gastroparesis population
# [9] = 15 mg/day, Week 4, diabetic gastroparesis population
# [10] = 15 mg/day, Week 4, idiopathic gastroparesis population
# [11] = 15 mg/day, Week 8, diabetic gastroparesis population
# [12] = 15 mg/day, Week 8, idiopathic gastroparesis population
# [13] = 15 mg/day, Week 12, diabetic gastroparesis population
# [14] = 15 mg/day, Week 12, idiopathic gastroparesis population
# [15] = 30 mg/day, Week 4, diabetic gastroparesis population
# [16] = 30 mg/day, Week 4, idiopathic gastroparesis population
# [17] = 30 mg/day, Week 8, diabetic gastroparesis population
# [18] = 30 mg/day, Week 8, idiopathic gastroparesis population
# [19] = 30 mg/day, Week 12, diabetic gastroparesis population
# [20] = 30 mg/day, Week 12, idiopathic gastroparesis population
substance,measurement,setting,value
"1-isopropyl-2-oxo-1,2-dihydroquinoline-3-carboxylic acid {(1S,3R,5R)-8-[(R)-2-hydroxy-3-(methanesulfonyl-methyl-amino)propyl]-8-azabicyclo[3.2.1]oct-3-yl}amide [Velusetrag]","LS Mean Difference vs placebo, GRS Summary Score 2 (Factor 2)","[1]; 5 mg/day, Week 4, ITT",−0.1 points and −0.1 (0.12) points
same,"LS Mean change from baseline, GRS Summary Score 2 (Factor 2)","[1]; 5 mg/day, Week 4, ITT",0.8 (0.08) points
same,"LS Mean Difference vs placebo, GRS Summary Score 2 (Factor 2)",[1]; [3],−0.0 points
same,"LS Mean change from baseline, GRS Summary Score 2 (Factor 2)",[1]; [3],−0.8 points
same,"LS Mean Difference vs placebo, GRS Summary Score 2 (Factor 2)",[1]; [4],−0.3 (0.17) points
same,"LS Mean change from baseline, GRS Summary Score 2 (Factor 2)",[1]; [4],−0.9 (0.12) points
same,"LS Mean Difference vs placebo, GRS Summary Score 2 (Factor 2)","[1]; 5 mg/day, Week 8, ITT",−0.1 (0.13) points
same,"LS Mean change from baseline, GRS Summary Score 2 (Factor 2)","[1]; 5 mg/day, Week 8, ITT",−0.9 (0.09) points
same,"LS Mean Difference vs placebo, GRS Summary Score 2 (Factor 2)",[1]; [5],0.0 points
same,"LS Mean change from baseline, GRS Summary Score 2 (Factor 2)",[1]; [5],−0.9 points
same,"LS Mean Difference vs placebo, GRS Summary Score 2 (Factor 2)",[1]; [6],−0.3 (0.18) points
same,"LS Mean change from baseline, GRS Summary Score 2 (Factor 2)",[1]; [6],−0.9 (0.13) points
same,"LS Mean Difference vs placebo, GRS Summary Score 2 (Factor 2)","[1]; 5 mg/day, Week 12, ITT",−0.2 points and −0.2 (0.12) points
same,"LS Mean change from baseline, GRS Summary Score 2 (Factor 2)","[1]; 5 mg/day, Week 12, ITT",−1.0 (0.08) points
same,"LS Mean Difference vs placebo, GRS Summary Score 2 (Factor 2)",[1]; [7],−0.1 points
same,"LS Mean change from baseline, GRS Summary Score 2 (Factor 2)",[1]; [7],−1.0 points
same,"LS Mean Difference vs placebo, GRS Summary Score 2 (Factor 2)",[1]; [8],−0.3 (0.17) points
same,"LS Mean change from baseline, GRS Summary Score 2 (Factor 2)",[1]; [8],−1.0 (0.12) points
same,"LS Mean Difference vs placebo, GRS Summary Score 2 (Factor 2)","[1]; 15 mg/day, Week 4, ITT",−0.0 (0.12) points
same,"LS Mean change from baseline, GRS Summary Score 2 (Factor 2)","[1]; 15 mg/day, Week 4, ITT",−0.7 (0.09) points
same,"LS Mean Difference vs placebo, GRS Summary Score 2 (Factor 2)",[1]; [9],0.1 points
same,"LS Mean change from baseline, GRS Summary Score 2 (Factor 2)",[1]; [9],−0.7 points
same,"LS Mean Difference vs placebo, GRS Summary Score 2 (Factor 2)",[1]; [10],−0.2 (0.18) points
same,"LS Mean change from baseline, GRS Summary Score 2 (Factor 2)",[1]; [10],−0.8 (0.13) points
same,"LS Mean Difference vs placebo, GRS Summary Score 2 (Factor 2)","[1]; 15 mg/day, Week 8, ITT",−0.0 (0.13) points
same,"LS Mean change from baseline, GRS Summary Score 2 (Factor 2)","[1]; 15 mg/day, Week 8, ITT",−0.8 (0.10) points
same,"LS Mean Difference vs placebo, GRS Summary Score 2 (Factor 2)",[1]; [11],0.3 points
same,"LS Mean change from baseline, GRS Summary Score 2 (Factor 2)",[1]; [11],−0.6 points
same,"LS Mean Difference vs placebo, GRS Summary Score 2 (Factor 2)",[1]; [12],−0.2 (0.19) points
same,"LS Mean change from baseline, GRS Summary Score 2 (Factor 2)",[1]; [12],−0.9 (0.14) points
same,"LS Mean Difference vs placebo, GRS Summary Score 2 (Factor 2)","[1]; 15 mg/day, Week 12, ITT",−0.1 (0.12) points
same,"LS Mean change from baseline, GRS Summary Score 2 (Factor 2)","[1]; 15 mg/day, Week 12, ITT",−0.9 (0.09) points
same,"LS Mean Difference vs placebo, GRS Summary Score 2 (Factor 2)",[1]; [13],0.1 points
same,"LS Mean change from baseline, GRS Summary Score 2 (Factor 2)",[1]; [13],−0.8 points
same,"LS Mean Difference vs placebo, GRS Summary Score 2 (Factor 2)",[1]; [14],−0.3 (0.18) points
same,"LS Mean change from baseline, GRS Summary Score 2 (Factor 2)",[1]; [14],−1.0 (0.13) points
same,"LS Mean Difference vs placebo, GRS Summary Score 2 (Factor 2)","[1]; 30 mg/day, Week 4, ITT",0.1 (0.12) points
same,"LS Mean change from baseline, GRS Summary Score 2 (Factor 2)","[1]; 30 mg/day, Week 4, ITT",−0.6 (0.09) points
same,"LS Mean Difference vs placebo, GRS Summary Score 2 (Factor 2)",[1]; [15],0.1 points
same,"LS Mean change from baseline, GRS Summary Score 2 (Factor 2)",[1]; [15],−0.6 points
same,"LS Mean Difference vs placebo, GRS Summary Score 2 (Factor 2)",[1]; [16],−0.0 (0.17) points
same,"LS Mean change from baseline, GRS Summary Score 2 (Factor 2)",[1]; [16],−0.7 (0.12) points
same,"LS Mean Difference vs placebo, GRS Summary Score 2 (Factor 2)","[1]; 30 mg/day, Week 8, ITT",−0.0 (0.13) points
same,"LS Mean change from baseline, GRS Summary Score 2 (Factor 2)","[1]; 30 mg/day, Week 8, ITT",−0.8 (0.09) points
same,"LS Mean Difference vs placebo, GRS Summary Score 2 (Factor 2)",[1]; [17],0.1 points
same,"LS Mean change from baseline, GRS Summary Score 2 (Factor 2)",[1]; [17],−0.8 points
same,"LS Mean Difference vs placebo, GRS Summary Score 2 (Factor 2)",[1]; [18],−0.1 (0.18) points
same,"LS Mean change from baseline, GRS Summary Score 2 (Factor 2)",[1]; [18],−0.8 (0.13) points
same,"LS Mean Difference vs placebo, GRS Summary Score 2 (Factor 2)","[1]; 30 mg/day, Week 12, ITT",−0.2 (0.12) points
same,"LS Mean change from baseline, GRS Summary Score 2 (Factor 2)","[1]; 30 mg/day, Week 12, ITT",−1.0 (0.08) points
same,"LS Mean Difference vs placebo, GRS Summary Score 2 (Factor 2)",[1]; [19],−0.2 points
same,"LS Mean change from baseline, GRS Summary Score 2 (Factor 2)",[1]; [19],−1.1 points
same,"LS Mean Difference vs placebo, GRS Summary Score 2 (Factor 2)",[1]; [20],−0.2 (0.17) points
same,"LS Mean change from baseline, GRS Summary Score 2 (Factor 2)",[1]; [20],−0.9 (0.12) points
same,"LS Mean Difference vs placebo, GRS Summary Score 1 (Factor 1)","[2]; 5 mg/day, Week 4, ITT",−0.4 points and −0.4 (0.16) points
same,"LS Mean change from baseline, GRS Summary Score 1 (Factor 1)","[2]; 5 mg/day, Week 4, ITT",−1.3 (0.11) points
same,"LS Mean Difference vs placebo, GRS Summary Score 1 (Factor 1)",[2]; [3],−0.3 (0.22) points
same,"LS Mean change from baseline, GRS Summary Score 1 (Factor 1)",[2]; [3],−1.2 (0.16) points
same,"LS Mean Difference vs placebo, GRS Summary Score 1 (Factor 1)",[2]; [4],−0.5 (0.23) points
same,"LS Mean change from baseline, GRS Summary Score 1 (Factor 1)",[2]; [4],−1.3 (0.16) points
same,"LS Mean Difference vs placebo, GRS Summary Score 1 (Factor 1)","[2]; 5 mg/day, Week 8, ITT",−0.3 (0.18) points
same,"LS Mean change from baseline, GRS Summary Score 1 (Factor 1)","[2]; 5 mg/day, Week 8, ITT",−1.4 (0.13) points
same,"LS Mean Difference vs placebo, GRS Summary Score 1 (Factor 1)",[2]; [5],−0.2 (0.25) points
same,"LS Mean change from baseline, GRS Summary Score 1 (Factor 1)",[2]; [5],−1.4 (0.18) points
same,"LS Mean Difference vs placebo, GRS Summary Score 1 (Factor 1)",[2]; [6],−0.4 (0.26) points
same,"LS Mean change from baseline, GRS Summary Score 1 (Factor 1)",[2]; [6],−1.4 (0.18) points
same,"LS Mean Difference vs placebo, GRS Summary Score 1 (Factor 1)","[2]; 5 mg/day, Week 12, ITT",−0.4 points and −0.4 (0.19) points
same,"LS Mean change from baseline, GRS Summary Score 1 (Factor 1)","[2]; 5 mg/day, Week 12, ITT",−1.5 (0.13) points
same,"LS Mean Difference vs placebo, GRS Summary Score 1 (Factor 1)","[2]; 15 mg/day, Week 4, ITT",−0.2 (0.17) points
same,"LS Mean change from baseline, GRS Summary Score 1 (Factor 1)","[2]; 15 mg/day, Week 4, ITT",−1.1 (0.12) points
same,"LS Mean Difference vs placebo, GRS Summary Score 1 (Factor 1)",[2]; [9],−0.2 points
same,"LS Mean change from baseline, GRS Summary Score 1 (Factor 1)",[2]; [9],−1.2 points
same,"LS Mean Difference vs placebo, GRS Summary Score 1 (Factor 1)",[2]; [10],−0.4 (0.25) points
same,"LS Mean change from baseline, GRS Summary Score 1 (Factor 1)",[2]; [10],−1.2 (0.18) points
same,"LS Mean Difference vs placebo, GRS Summary Score 1 (Factor 1)","[2]; 15 mg/day, Week 8, ITT",−0.1 (0.19) points
same,"LS Mean change from baseline, GRS Summary Score 1 (Factor 1)","[2]; 15 mg/day, Week 8, ITT",−1.2 (0.14) points
same,"LS Mean Difference vs placebo, GRS Summary Score 1 (Factor 1)",[2]; [11],0.0 points
same,"LS Mean change from baseline, GRS Summary Score 1 (Factor 1)",[2]; [11],−1.2 points
same,"LS Mean Difference vs placebo, GRS Summary Score 1 (Factor 1)",[2]; [12],−0.4 (0.28) points
same,"LS Mean change from baseline, GRS Summary Score 1 (Factor 1)",[2]; [12],−1.3 (0.20) points
same,"LS Mean Difference vs placebo, GRS Summary Score 1 (Factor 1)","[2]; 15 mg/day, Week 12, ITT",−0.2 (0.2) points
same,"LS Mean change from baseline, GRS Summary Score 1 (Factor 1)","[2]; 15 mg/day, Week 12, ITT",−1.3 (0.15) points
same,"LS Mean Difference vs placebo, GRS Summary Score 1 (Factor 1)",[2]; [13],0.0 points
same,"LS Mean change from baseline, GRS Summary Score 1 (Factor 1)",[2]; [13],−1.3 points
same,"LS Mean Difference vs placebo, GRS Summary Score 1 (Factor 1)",[2]; [14],−0.4 (0.29) points
same,"LS Mean change from baseline, GRS Summary Score 1 (Factor 1)",[2]; [14],−1.4 (0.22) points
same,"LS Mean Difference vs placebo, GRS Summary Score 1 (Factor 1)","[2]; 30 mg/day, Week 4, ITT",0.0 (0.17) points
same,"LS Mean change from baseline, GRS Summary Score 1 (Factor 1)","[2]; 30 mg/day, Week 4, ITT",−0.8 (0.12) points
same,"LS Mean Difference vs placebo, GRS Summary Score 1 (Factor 1)",[2]; [15],0.1 points
same,"LS Mean change from baseline, GRS Summary Score 1 (Factor 1)",[2]; [15],−0.8 points
same,"LS Mean Difference vs placebo, GRS Summary Score 1 (Factor 1)",[2]; [16],−0.0 (0.23) points
same,"LS Mean change from baseline, GRS Summary Score 1 (Factor 1)",[2]; [16],−0.8 (0.16) points
same,"LS Mean Difference vs placebo, GRS Summary Score 1 (Factor 1)","[2]; 30 mg/day, Week 8, ITT",−0.1 (0.18) points
same,"LS Mean change from baseline, GRS Summary Score 1 (Factor 1)","[2]; 30 mg/day, Week 8, ITT",−1.1 (0.13) points
same,"LS Mean Difference vs placebo, GRS Summary Score 1 (Factor 1)",[2]; [17],0.0 points
same,"LS Mean change from baseline, GRS Summary Score 1 (Factor 1)",[2]; [17],−1.2 points
same,"LS Mean Difference vs placebo, GRS Summary Score 1 (Factor 1)",[2]; [18],−0.2 (0.26) points
same,"LS Mean change from baseline, GRS Summary Score 1 (Factor 1)",[2]; [18],−1.1 (0.18) points
same,"LS Mean Difference vs placebo, GRS Summary Score 1 (Factor 1)","[2]; 30 mg/day, Week 12, ITT",−0.1 (0.2) points
same,"LS Mean change from baseline, GRS Summary Score 1 (Factor 1)","[2]; 30 mg/day, Week 12, ITT",−1.2 (0.14) points
same,"LS Mean Difference vs placebo, GRS Summary Score 1 (Factor 1)",[2]; [19],−0.1 points
same,"LS Mean change from baseline, GRS Summary Score 1 (Factor 1)",[2]; [19],−1.3 points
same,"LS Mean Difference vs placebo, GRS Summary Score 1 (Factor 1)",[2]; [20],−0.1 (0.28) points
same,"LS Mean change from baseline, GRS Summary Score 1 (Factor 1)",[2]; [20],−1.1 (0.19) points
